pIC50: −log10 of the molar value. Like-named read-outs stand apart in the source and are kept apart here.
How the values were obtained:
TRPA1 [1] = molecular target: T1, TRPA1 (Homo sapiens, UniProt O75762); test: Cell-based calcium assay (Fluo-4 fluorescence) in HEK293 cells expressing recombinant human TRPA1; parameters: expressed in transfected cells
Protocol: The HEK293 cell line expressing recombinant human TRPA1 under the control of a tetracycline-regulated promoter was used in this assay (cf. example 2). Functional modulation of TRPA1 by the tested compounds was measured and quantified using the calcium sensitive fluorescent probe […] on a fluorescence microplate reader. Activation of TRPA1 by an agonist led to an increase in the intracellular calcium concentration and thus an increase in fluorescence intensity.
Procedure: Cells were cultured in DMEM (high glucose) supplemented with tetracycline-free FCS (10% v/v), L-glutamine (4 mM), blasticidin (15 μg/ml) and hygromycin (100 μg/mL) in a water-saturated atmosphere at 37° C. and 5% CO2. Cells were seeded onto 96-well clear-bottom black-walled assay plates at a density of 70,000 cells per well in 100 μl of cell culture medium. Expression of the ion channel was induced or not induced by addition of tetracycline (1 μg/ml final concentration) to the cell culture medium (while seeding the cells). Calcium influx into the living cells due to channel activation was monitored 24 h later using the calcium sensitive fluorescent probe […] on a fluorescence microplate reader (FlexStation® system, Molecular Devices). Therefore 100 μl Krebs-HEPES (KH) buffer (118 mM NaCl; 4.7 mM KCl; 1.3 mM CaCl2; 1.2 mM MgSO4; 1.2 mM KH2PO4; 4.2 mM NaHCO3; 10 mM Hepes, pH 7.4) supplemented with sulfinpyrazone (250 μM) and […] (4 μM) were added and the cells were incubated for an additional hour in a water-saturated atmosphere at 37° C. and 5% CO2.
Measurement of agonistic activity: Medium was replaced with 200 μl KH buffer supplemented with sulfinpyrazone (250 μM). Subsequently, 50 μl KH buffer supplemented with the agonists or control substances were added. Changes in fluorescence were recorded at 20-26° C.
Measurement of antagonistic activity (screening): Medium was replaced with 150 μl KH buffer supplemented with sulfinpyrazone (250 μM). Subsequently, 50 μl KH buffer supplemented with the screening compounds (50 μM; leading to a final concentration of 10 μM under measurement conditions) or control substances were added and the cells were incubated for 10 min. under assay conditions in the microplate reader. Changes in fluorescence were recorded at 20-26° C. after addition of 50 μl KH buffer supplemented with the TRPA1 agonist menthol (175 μM; leading to a final concentration of 35 μM under measurement conditions). The published TRPA1 antagonist AP-18 (Petrus, 2007) was used as a control for TRPA1-specific […] activity. Subsequently, the inventive compounds were tested for their capacity to reduce signals triggered by addition of propylparaben (EC80=80 μM), retinol (EC80=150 μM), and allyl isothiocyanate (EC80=5 μM) (cf. Table 2).
Analysis: Calcium mobilization was quantified as the change of peak fluorescence (ΔF) over the baseline level (F). The data was analyzed with the software of the microplate reader. Potential TRPA1 antagonists were tested in an effective range of 0.1-50 μM for their capacity to reduce the menthol-evoked signal.

TRPA1 [2] = molecular target: T1, TRPA1; test: Blinded in vivo study on the lid-cheek junction, stinging/burning induced by flufenamic acid; parameters: from tissue; host or cells: facial skin (lid-cheek junction) of human volunteers; conditions: compound 0.05% pre-incubated on one side of face, placebo on other; flufenamic acid 0.75%; 16 persons, two felt no stimulus
Protocol: Antagonistic in vivo activity at TRPA1 was tested in a blinded study on the lid-cheek junction of 16 test persons. The ion channel was stimulated using a known TRPA1 agonist: flufenamic acid, a member of the group of NSAIDs (non-steroidal anti-inflammatory drugs) (Hu et al., 2010). The concentration of flufenamic acid was adjusted to a level that induced a pronounced stinging/burning sensation in the majority of the testers (0.75%).
Procedure: One side of the face (the lid-cheek junction) was pre-incubated with the antagonist (compound I.3, 0.05%)—the other side with placebo. Afterwards, flufenamic acid was applied to both sides simultaneously. Testers were asked several questions regarding their individual perception of irritation.
Analysis: Testers were asked if they could feel the NSAID-triggered stinging/burning. The strength of the stimulus was not judged. Then they were asked if they could perceive a difference between the two areas. If the answer was yes, they were asked which side was perceived as more pleasant. The antagonistic effect was graded in three categories: no reduction, reduction and strong reduction of the irritation. 10 out of 14 testers perceived a soothing effect by the use of the antagonist (two individuals felt no stimulus at all).

human TRPM8 = molecular target: T2, human TRPM8 (Homo sapiens, UniProt Q7Z2W7); test: Test for cross-selectivity on TRPM8: calcium assay in HEK293 cells expressing recombinant human TRPM8; format: cell-based
T2 construct: expressed in transfected cells; host or cells: HEK293 (tetracycline-regulated promoter)
Protocol: The test for cross-selectivity of the compounds on TRPM8 was performed in much the same way as the initial screening on TRPA1 (described in example 3). A HEK293 cell line expressing recombinant human TRPM8 under the control of a tetracycline-regulated promoter was used. Cells were cultured under the conditions mentioned in example 3. Functional modulation of TRPM8 was measured and quantified using the calcium sensitive fluorescent probe Fluo-4 AM on a fluorescence microplate reader. The assay was performed as described in example 3. Changes in fluorescence were recorded at 26-30° C. after addition of the compounds and/or the TRPM8 agonist menthol (EC80=12 μM). Dose-response curves are shown in FIGS. 5 to 9 (calcium assay) against menthol, which is known to trigger both TRPA1 as well as TRPM8. In particular, the antagonistic activity of compound I.3, II.3, III.3, IV.3 and V.3 at TRPA1 (open circles, continuous line) as well as the antagonistic activity of said compounds at TRPM8 (filled squares, dotted line) was measured and compared. Activation of the two ion channels was triggered by addition of menthol (EC80[TRPA1]=35 μM and EC80[TRPM8]=12 μM). The receptor signals were normalized to the pure menthol signal in each case.

TRPA1 [3] = molecular target: T1, TRPA1; test: Cell-based (label-free) impedance assay in HaCaT cells
[4] = agonist allyl isothiocyanate at EC80 (5 μM), read-out: Antagonistic activity (IC50) against Allyl isothiocyanate
[5] = agonist menthol at EC80 (35 μM final), read-out: Antagonistic activity (IC50) against Menthol
[6] = agonist propylparaben at EC80 (80 μM), read-out: Antagonistic activity (IC50) against Propylparaben
[7] = agonist retinol at EC80 (150 μM), read-out: Antagonistic activity (IC50) against Retinol

T1 sequence (O75762 whole entry): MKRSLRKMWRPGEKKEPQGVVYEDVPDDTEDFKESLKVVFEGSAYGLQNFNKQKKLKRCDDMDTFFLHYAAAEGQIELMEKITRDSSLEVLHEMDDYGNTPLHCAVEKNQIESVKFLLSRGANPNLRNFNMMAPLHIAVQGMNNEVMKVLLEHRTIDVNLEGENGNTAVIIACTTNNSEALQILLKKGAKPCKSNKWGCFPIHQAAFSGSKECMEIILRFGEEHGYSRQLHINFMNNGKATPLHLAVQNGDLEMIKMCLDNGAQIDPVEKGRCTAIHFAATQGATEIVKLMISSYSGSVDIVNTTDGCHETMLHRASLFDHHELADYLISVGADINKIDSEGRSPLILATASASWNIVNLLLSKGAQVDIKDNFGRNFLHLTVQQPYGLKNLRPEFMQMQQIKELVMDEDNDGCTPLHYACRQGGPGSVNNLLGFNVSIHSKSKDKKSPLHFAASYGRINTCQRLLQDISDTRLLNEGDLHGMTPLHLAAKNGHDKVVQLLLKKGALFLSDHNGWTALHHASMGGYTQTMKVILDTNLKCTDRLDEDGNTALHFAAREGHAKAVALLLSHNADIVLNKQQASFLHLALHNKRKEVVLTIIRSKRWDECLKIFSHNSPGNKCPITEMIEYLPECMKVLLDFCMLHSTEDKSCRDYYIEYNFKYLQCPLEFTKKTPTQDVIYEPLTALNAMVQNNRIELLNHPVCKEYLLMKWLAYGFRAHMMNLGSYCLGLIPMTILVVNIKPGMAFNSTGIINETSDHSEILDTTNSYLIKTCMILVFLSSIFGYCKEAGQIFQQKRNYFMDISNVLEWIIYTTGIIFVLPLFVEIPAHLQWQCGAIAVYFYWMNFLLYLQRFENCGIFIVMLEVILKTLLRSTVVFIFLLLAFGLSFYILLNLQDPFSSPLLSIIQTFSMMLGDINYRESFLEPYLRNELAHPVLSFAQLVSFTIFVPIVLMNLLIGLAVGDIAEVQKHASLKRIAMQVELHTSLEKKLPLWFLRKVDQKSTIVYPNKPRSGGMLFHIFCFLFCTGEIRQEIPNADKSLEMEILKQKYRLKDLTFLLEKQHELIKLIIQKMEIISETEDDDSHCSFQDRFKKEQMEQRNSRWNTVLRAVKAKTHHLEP
T2 sequence (Q7Z2W7 whole entry): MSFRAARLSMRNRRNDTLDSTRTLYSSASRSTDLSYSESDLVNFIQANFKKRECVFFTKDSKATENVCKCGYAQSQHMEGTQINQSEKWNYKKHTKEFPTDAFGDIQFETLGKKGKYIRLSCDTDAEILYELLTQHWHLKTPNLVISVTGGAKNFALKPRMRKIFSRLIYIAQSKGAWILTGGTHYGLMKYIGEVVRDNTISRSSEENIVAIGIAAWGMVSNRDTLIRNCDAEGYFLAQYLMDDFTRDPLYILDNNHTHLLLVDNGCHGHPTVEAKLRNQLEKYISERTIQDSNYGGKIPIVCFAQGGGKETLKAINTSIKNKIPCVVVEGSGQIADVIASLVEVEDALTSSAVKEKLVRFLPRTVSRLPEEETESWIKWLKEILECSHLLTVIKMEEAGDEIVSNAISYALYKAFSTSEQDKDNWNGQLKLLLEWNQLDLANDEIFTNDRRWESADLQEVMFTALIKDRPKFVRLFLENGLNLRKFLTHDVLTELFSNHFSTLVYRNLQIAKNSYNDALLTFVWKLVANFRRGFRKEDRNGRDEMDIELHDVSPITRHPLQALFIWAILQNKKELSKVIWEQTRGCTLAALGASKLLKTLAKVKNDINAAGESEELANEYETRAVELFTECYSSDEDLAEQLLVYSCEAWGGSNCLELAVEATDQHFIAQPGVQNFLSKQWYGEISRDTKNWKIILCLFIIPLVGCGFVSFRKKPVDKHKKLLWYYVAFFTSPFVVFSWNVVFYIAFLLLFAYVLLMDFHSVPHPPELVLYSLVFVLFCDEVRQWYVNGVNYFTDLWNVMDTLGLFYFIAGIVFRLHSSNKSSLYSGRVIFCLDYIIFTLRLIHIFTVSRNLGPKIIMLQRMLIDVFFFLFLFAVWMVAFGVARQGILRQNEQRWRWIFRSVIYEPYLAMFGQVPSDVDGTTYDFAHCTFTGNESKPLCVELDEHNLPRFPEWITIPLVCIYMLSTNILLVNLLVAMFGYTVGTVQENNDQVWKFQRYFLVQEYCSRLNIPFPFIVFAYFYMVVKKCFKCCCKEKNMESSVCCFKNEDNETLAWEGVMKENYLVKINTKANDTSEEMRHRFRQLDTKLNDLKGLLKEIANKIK

pIC50 (TRPA1 [1]; [4])	pIC50 (TRPA1 [1]; [5])	pIC50 (TRPA1 [1]; [6])	pIC50 (TRPA1 [1]; [7])	Testers who perceived a soothing effect by the use of the antagonist (TRPA1 [2])	Agonistic efficacy at TRPA1 (EC80) (TRPA1 [3])	SMILES	Agonistic efficacy at TRPA1 (EC80) (TRPA1 [1])	Agonistic efficacy at TRPM8 (EC80) (human TRPM8)
5.60	5.46	5.33	5.47	10 out of 14		COc1cc(C(=O)OC2CC3CCC2(C)C3(C)C)ccc1OC(C)=O (centres unmarked) [Compound I.3]		
5.92	7.00	6.40	6.40			COC(=O)c1ccc(/C=C(\C#N)C(=O)Nc2ccccc2F)cc1 [Compound III.3]		
5.46	6.52	5.37	5.48			Cc1cc(/C=C2\C(=N)N3N=C(CC(=O)N4CCCC4)SC3=NC2=O)c(C)n1-c1cccc(Cl)c1 [Compound IV.3]		
4.59	5.35	4.59	4.85			CC(C)c1ccc2c(c1)CCC1[C@](C)(C(=O)O)CCC[C@]21C (some centres unmarked) [Compound V.3]		
						C=CCN=C=S [allyl isothiocyanate, reference compound]	5 µM	
						CC1CCC(C(C)C)C(O)C1 (centres unmarked) [menthol, 2-isopropyl-5-methyl-cyclohexanol, reference compound]	35 µM	12 µM
					200 µM	CCCOC(=O)c1ccc(O)cc1 [propylparaben, reference compound]	80 µM	
						CC1=C(/C=C/C(C)=C/C=C/C(C)=C/CO)C(C)(C)CCC1 [retinol, reference compound]	150 µM	

Reference: US10000438B2, “Small molecule inhibitors of TRPA1” (B.R.A.I.N. Biotechnology Research and Information Network AG, priority 2011, dated 2018)
